{"source": "paper PMC12401175", "about": "“Construction of hyperthermostable D‐allulose 3‐epimerase from Arthrobacter globiformis M30 using the sequence information from Arthrobacter psychrolactophilus” (FEBS Open Bio, 2025)", "key": {"AgDAE [1]": {"target": "T1, AgDAE (Arthrobacter globiformis, UniProt A0A1L7NQ96)", "T1 sequence (A0A1L7NQ96 1-289)": "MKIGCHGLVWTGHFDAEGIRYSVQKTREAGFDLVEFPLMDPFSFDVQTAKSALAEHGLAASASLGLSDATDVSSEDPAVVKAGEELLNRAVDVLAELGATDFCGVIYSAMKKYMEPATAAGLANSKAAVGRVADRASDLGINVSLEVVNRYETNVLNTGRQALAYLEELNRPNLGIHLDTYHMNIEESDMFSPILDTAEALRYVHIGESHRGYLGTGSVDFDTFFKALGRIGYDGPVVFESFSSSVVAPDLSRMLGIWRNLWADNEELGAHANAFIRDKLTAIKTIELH", "format": "biochemical", "settings": "50 °C, 50 mM sodium phosphate pH 8.0, 2 mM MgSO4; read-out: Allulose → Fructose / K m"}, "AgDAE [2]": {"target": "T1, AgDAE", "format": "biochemical", "settings": "50 °C, 50 mM sodium phosphate pH 8.0, 2 mM MgSO4; read-out: Fructose → Allulose / K m"}}, "note": "Like-named read-outs stand apart in the source and are kept apart here."}
{"compound": "OCC1(O)OC[C@@H](O)[C@@H](O)[C@H]1O", "note": "(stereo partly drawn) [D-allulose]", "values": [{"measurement": "Km", "setting": "AgDAE [1]", "result": "11.7 ± 0.7", "unit": "mM"}]}
{"compound": "OCC1(O)OC[C@@H](O)[C@@H](O)[C@@H]1O", "note": "(stereo partly drawn) [D-fructose]", "values": [{"measurement": "Km", "setting": "AgDAE [2]", "result": "21.1 ± 5.6", "unit": "mM"}]}
